{
  "source": "paper PMC8757610",
  "about": "“Design, synthesis, and biological evaluation of arylmethylpiperidines as Kv1.5 potassium channel inhibitors” (Journal of Enzyme Inhibition and Medicinal Chemistry, 2022)",
  "key": {"Kv1.5": {"test_system": "Kv1.5", "conditions": "in Figure 2, no reference given, cited from earlier work"}, "hKv1.5 potassium channel": {"target": "hKv1.5 potassium channel (Homo sapiens, UniProt P22460)", "sequence (P22460 whole entry)": "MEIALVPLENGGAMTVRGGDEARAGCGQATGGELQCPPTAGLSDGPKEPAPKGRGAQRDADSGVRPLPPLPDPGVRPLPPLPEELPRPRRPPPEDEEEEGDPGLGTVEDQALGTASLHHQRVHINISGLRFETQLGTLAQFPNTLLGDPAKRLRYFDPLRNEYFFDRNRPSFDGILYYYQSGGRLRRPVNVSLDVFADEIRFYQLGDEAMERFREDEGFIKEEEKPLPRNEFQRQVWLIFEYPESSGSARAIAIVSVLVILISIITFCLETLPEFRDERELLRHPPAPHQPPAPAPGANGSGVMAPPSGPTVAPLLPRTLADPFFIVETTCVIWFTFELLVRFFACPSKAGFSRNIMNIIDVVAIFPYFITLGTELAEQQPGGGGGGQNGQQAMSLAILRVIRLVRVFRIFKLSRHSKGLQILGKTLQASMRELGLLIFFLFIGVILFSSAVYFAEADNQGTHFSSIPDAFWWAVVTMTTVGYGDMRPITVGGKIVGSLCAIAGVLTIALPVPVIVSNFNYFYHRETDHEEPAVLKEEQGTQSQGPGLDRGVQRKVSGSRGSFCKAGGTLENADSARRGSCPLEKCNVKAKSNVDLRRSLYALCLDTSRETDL", "assay": "Whole-cell patch clamp assay on HEK 293 cells stably expressing hKv1.5", "conditions": "hKv1.5 IC50, whole-cell patch clamp, HEK 293 cells expressing hKv1.5, 25 °C, mean ± SD"}, "SD rats [1]": {"test_system": "SD rats", "assay": "CaCl2-ACh induced AF model", "format": "in vivo, rat"}, "[2]": {"assay": "Single-dose pharmacokinetics study", "format": "in vivo", "conditions": "beagle dogs, mean ± SD, n = 6"}, "SD rats [3]": {"test_system": "SD rats", "format": "in vivo, rat"}, "guinea pigs": {"test_system": "guinea pigs", "assay": "Preliminary safety evaluation by 12-lead electrocardiogram", "format": "in vivo"}, "[4]": {"conditions": "both sexes, beagle, dog, plasma, iv, 1 mg/kg, i.v. 1.00 mg/kg"}, "[5]": {"conditions": "cumulative i.v. 3 × 10^−7 to 3 × 10^−5 mol/kg"}},
  "note": "Counter-ions that a name gives are not always drawn. Like-named read-outs stand apart in the source and are kept apart here.",
  "data": [
    {"compound": "COc1ccc(CCO[C@@H]2CCCC[C@H]2N2CC[C@@H](O)C2)cc1OC", "note": "[Vernakalant hydrochloride]", "values": [
      {"measurement": "IC50", "setting": "Kv1.5; known Kv1.5 inhibitors", "value": 13, "unit": "µM"}
    ]},
    {"compound": "Cl.Cl.c1ccc(CNC2CCN(Cc3nc4ccccc4o3)CC2)cc1", "note": "[DDO-02004, 1-(benzo[d]oxazol-2-ylmethyl)-N-benzylpiperidin-4-amine dihydrochloride]", "values": [
      {"measurement": "IC50", "setting": "hKv1.5 potassium channel", "value": "0.95 ± 0.13", "unit": "µM"},
      {"measurement": "melting point", "value": "> 250", "unit": "°C"}
    ]},
    {"compound": "COc1ccc(NC(=O)C2CCN(Cc3ccccc3)CC2)cc1", "note": "[DDO-02001, 1-benzyl-N-(4-methoxyphenyl) piperidine-4-carboxamide]", "values": [
      {"measurement": "IC50", "setting": "hKv1.5 potassium channel", "value": 17.7, "unit": "µM"}
    ]},
    {"compound": "COc1ccc(CC(=O)NCc2ccccc2-c2ccccc2C(=O)NCCc2cccnc2)cc1", "note": "[AVE-0118]", "values": [
      {"measurement": "IC50", "setting": "Kv1.5; known Kv1.5 inhibitors", "value": 1.1, "unit": "µM"}
    ]},
    {"compound": "COc1ccc(NC(=O)C2CCN(Cc3nc4ccccc4o3)CC2)cc1", "note": "[DDO-02002, 1-(benzo[d]oxazol-2-ylmethyl)-N-(4-methoxyphenyl) piperidine-4-carboxamide]", "values": [
      {"measurement": "IC50", "setting": "hKv1.5 potassium channel", "value": "8.96 ± 1.15", "unit": "µM"},
      {"measurement": "melting point", "value": "190 to 194", "unit": "°C"}
    ]},
    {"compound": "COc1ccccc1CNC1CCN(Cc2nc3ccccc3o2)CC1", "note": "[DDO-02007, 1-(benzo[d]oxazol-2-ylmethyl)-N-(2-methoxybenzyl)piperidin-4-amine dihydrochloride]", "values": [
      {"measurement": "IC50", "setting": "hKv1.5 potassium channel", "value": "> 20", "unit": "µM"}
    ]},
    {"compound": "Fc1ccc(CNC2CCN(Cc3nc4ccccc4o3)CC2)cc1", "note": "[DDO-02006, 1-(benzo[d]oxazol-2-ylmethyl)-N-(4-fluorobenzyl) piperidin-4-amine dihydrochloride]", "values": [
      {"measurement": "IC50", "setting": "hKv1.5 potassium channel", "value": "3.24 ± 0.29", "unit": "µM"}
    ]},
    {"compound": "COc1ccc(CNC2CCN(Cc3nc4ccccc4o3)CC2)cc1.Cl.Cl", "note": "[DDO-02005, 1-(benzo[d]oxazol-2-ylmethyl)-N-(4-methoxybenzyl)piperidin-4-amine dihydrochloride]", "values": [
      {"measurement": "atrial ERP (AERP)", "setting": "SD rats [1]; AF rats, 2.5 mg/kg i.p.", "value": "increased to normal level"},
      {"measurement": "ventricle ERP (VERP)", "setting": "SD rats [1]; AF rats, 2.5 mg/kg i.p.", "value": "increased to normal level"},
      {"measurement": "duration of AF", "setting": "SD rats [1]; rats, 0.625, 1.25, 2.5 mg/kg i.p., Day 4 to Day 7", "value": "shortened significantly"},
      {"measurement": "AF therapeutic effect compared with dronedarone", "setting": "SD rats [1]; rats, dronedarone 1.25 mg/kg i.p. as positive control", "value": "better than that of dronedarone"},
      {"measurement": "CL", "setting": "[2]; i.v. 1.00 mg/kg, 1 mg/kg", "value": "97.2 ± 24", "unit": "mL/min/kg"},
      {"measurement": "CL", "setting": "[2]; p.o. 1.25 mg/kg", "value": "608.5 ± 42.3", "unit": "mL/min/kg"},
      {"measurement": "Cmax", "setting": "[2]; p.o. 1.25 mg/kg, 1.25 mg/kg", "value": "1.27 ± 0.40", "unit": "ng/mL"},
      {"measurement": "t1/2", "setting": "[2]; p.o. 1.25 mg/kg, 1.25 mg/kg", "value": "6.25 ± 2.40", "unit": "h"},
      {"measurement": "clearance", "setting": "[2]; [4]", "value": 97.2, "unit": "mL/min/kg"},
      {"measurement": "half-life", "setting": "[2]; [4]", "value": "3.23 ± 1.07", "unit": "h"},
      {"measurement": "Cmax", "setting": "[2]; both sexes, beagle, dog, plasma, iv, 1 mg/kg, i.v. 1.00 mg/kg, read-out: Cmax", "value": "90.2 ± 28.8", "unit": "ng/mL"},
      {"measurement": "half-life", "setting": "[2]; both sexes, beagle, dog, plasma, po, 1.25 mg/kg, p.o. 1.25 mg/kg", "value": 6.25, "unit": "h"},
      {"measurement": "Cmax", "setting": "[2]; both sexes, beagle, dog, plasma, po, 1.25 mg/kg, p.o. 1.25 mg/kg, read-out: Cmax", "value": 1.27, "unit": "ng/mL"},
      {"measurement": "AUC(0-t)", "setting": "[2]; both sexes, dog, plasma, iv, i.v. 1.00 mg/kg", "value": "178 ± 39.3", "unit": "ng·h/mL"},
      {"measurement": "AUC(0-t)", "setting": "[2]; both sexes, dog, plasma, po, p.o. 1.25 mg/kg", "value": "4.41 ± 0.69", "unit": "ng·h/mL"},
      {"measurement": "IC50", "setting": "hKv1.5 potassium channel", "value": "0.72 ± 0.08", "unit": "µM"},
      {"measurement": "increase of aconitine required to cause arrhythmia versus model group", "setting": "SD rats [3]; 0.1 mg/kg i.v.", "value": 2, "unit": "%"},
      {"measurement": "increase of aconitine required to cause arrhythmia versus model group", "setting": "SD rats [3]; 1 mg/kg i.v.", "value": 53, "unit": "%"},
      {"measurement": "increase of aconitine required to cause arrhythmia versus model group", "setting": "SD rats [3]; 3 mg/kg i.v.", "value": 56, "unit": "%"},
      {"measurement": "increase of aconitine required to cause arrhythmia versus model group", "setting": "SD rats [3]; 9 mg/kg i.v.", "value": 60, "unit": "%"},
      {"measurement": "overall preliminary safety compared with Azimilide", "setting": "guinea pigs; 12-lead electrocardiogram", "value": "safer than Azimilide"},
      {"measurement": "effect on QT dispersion (QTd), compared with Azimilide", "setting": "guinea pigs; [5]", "value": "less effect"},
      {"measurement": "effect on QTcd, compared with Azimilide", "setting": "guinea pigs; [5]", "value": "less effect"},
      {"measurement": "heart rate of guinea pigs", "setting": "guinea pigs; [5]", "value": "slowed down obviously"},
      {"measurement": "heart rate, compared with Azimilide", "setting": "guinea pigs; [5]", "value": "no statistically significant differences"},
      {"measurement": "prolonging QT interval, compared with Azimilide", "setting": "guinea pigs; [5]", "value": "no statistically significant differences"},
      {"measurement": "prolonging QTc interval, compared with Azimilide", "setting": "guinea pigs; [5]", "value": "no statistically significant differences"}
    ]},
    {"compound": "Cc1ccc(S(=O)(=O)Nc2ccccc2C(=O)N(Cc2ccccc2)Cc2cccnc2)cc1", "note": "[S-0100176]", "values": [
      {"measurement": "IC50", "setting": "Kv1.5; known Kv1.5 inhibitors", "value": 0.7, "unit": "µM"}
    ]},
    {"compound": "CS(=O)(=O)Nc1cccc([C@H](c2ccc(F)cc2)C(c2cccnc2)c2cccnc2)n1", "note": "[MK-0448]", "values": [
      {"measurement": "IC50", "setting": "Kv1.5; known Kv1.5 inhibitor", "value": 0.0108, "unit": "µM"}
    ]},
    {"compound": "c1ccc(CCNC2CCN(Cc3nc4ccccc4o3)CC2)cc1", "note": "[DDO-02009, 1-(benzo[d]oxazol-2-ylmethyl)-N-phenethylpiperidin-4-amine hydrochloride]", "values": [
      {"measurement": "IC50", "setting": "hKv1.5 potassium channel", "value": "> 20", "unit": "µM"}
    ]},
    {"compound": "Cc1ccc(CNC2CCN(Cc3nc4ccccc4o3)CC2)cc1", "note": "[DDO-02008, 1-(benzo[d]oxazol-2-ylmethyl)-N-(4-methylbenzyl)piperidin-4-amine dihydrochloride]", "values": [
      {"measurement": "IC50", "setting": "hKv1.5 potassium channel", "value": "> 20", "unit": "µM"}
    ]}
  ]
}
